# Laboratory results: patent US4758579A, “Fluoroalkoxy substituted benzimidazoles useful as gastric acid secretion inhibitors” (BYK Gulden Lomberg Chemische Fabrik GmbH, priority 1984, dated 1988)
# Legend:
# [1] = tested on: formation of gastric lesions; experiment: Antiulcerogenic action in Shay rats: protective action on the stomach (lesion index after pylorus ligature and oral acetylsalicylic acid); format: in vivo; conditions: rat, p.o., pylorus ligature (4 hours; Shay rat) + 100 mg/kg acetylsalicylic acid, dose reducing lesion index by 50% vs control, read-out: Protective action on the stomach (rat) inhibition of the lesion index ED50
# Experimental: (§1) The compounds according to the invention investigated appear in the following table:
# (§2) The influence of the compounds investigated on the formation of gastric lesions triggered by pylorus ligature (4 hours; Shay rat) and oral administration of 100 mg/kg of acetylsalicylic acid on the inhibition of gastric secretion (HCl) in rats during 4 hours is shown in the following table:
# (§3) The antiulcerogenic action was tested in Shay rats:
# (§4) Ulcers were provoked in rats which had fasted for 24 hours (female, 180-200 g, 4 animals per cage on a high grid) by pylorus ligature (under diethyl ether anesthesia) and oral administration of 100 mg/10 ml/kg of acetylsalicylic acid. The substances to be tested are administered orally (10 ml/kg) one hour before the pylorus ligature. The wound is closed by means of Michel clamps. 4 hours thereafter, the animals are sacrificed under ether anesthesia by atlas dislocation and the stomach is resected. The stomach is opened longitudinally and fixed to a cork plate, after first determining the amount of secreted gastric juice (volume) and later its HCl content (titration with sodium hydroxide solution). The number and size (=diameter) of ulcers present are determined with a stereomicroscope with 10-fold magnification. The product of the degree of severity (according to the following points scale) and number of ulcers serves as the individual lesion index.
# ulcer diameter 0.1-1.4 mm
# (§5) The reduction in the average lesion index of each treated group compared with that of the control group (=100%) serves as a measure of the antiulcerogenic effect.
# [2] = tested on: HCl secretion in the stomach; experiment: Inhibition of gastric secretion (HCl) in the stomach of the Shay rat over 4 hours; format: in vivo; conditions: total of 4 hours; for ED25 / ED50: po; for ED25: dose reducing HCl secretion by 25% vs control; for ED50: dose reducing HCl secretion by 50% vs control; for % inhibition of HCl secretion: after administration of the antiulcerous ED50
# Experimental: as §1, §2
# ED25+ and ED50+ = dose which reduces the lesion index and the HCL
# secretion (over 4 hours) in the rat stomach by 25% and 50% in the treated
# group in comparison with the control group.
# (++) = after administration of the antiulcerous ED50
# as §3, §4, §5
Compound,ED50 [1] [mg/kg],ED25 [2] [mg/kg],ED50 [2] [mg/kg],% inhibition of HCl secretion [2] [%]
"COc1cnc(C[S+]([O-])c2nc3cc(OC(F)(F)F)ccc3[nH]2)cc1OC (centres unmarked) [Serial No. 1, 2-[(4,5-Dimethoxy-2-pyridyl)methylsulfinyl]-5-trifluoromethoxy-1H-benzimidazole]",0.6,1,~3,15
"COc1cnc(C[S+]([O-])c2nc3cc(OC(F)(F)F)ccc3[nH]2)c(C)c1OC (centres unmarked) [Serial No. 2, 2-[(4,5-Dimethoxy-3-methyl-2-pyridyl)methylsulfinyl]-5-trifluoromethoxy-1H-benzimidazole]",0.8,0.7,1.7,25
"COc1cnc(C[S+]([O-])c2nc3cc(OC(F)(F)C(F)F)ccc3[nH]2)cc1OC (centres unmarked) [Serial No. 3, 2-[(4,5-dimethoxy-2-pyridyl)methylsulfinyl]-5-(1,1,2,2-tetrafluoroethoxy)-1H-benzimidazole]",0.6,~1,3.4,18
"COc1cnc(CSc2nc3cc4c(cc3[nH]2)OC(F)(F)O4)cc1OC [Serial No. 4, 2,2-difluoro-6-[(4,5-dimethoxy-2-pyridyl)methylthio]-5H-[1,3]-dioxolo[4,5-f]benzimidazole]",3.5,3,6.5,28
"COc1cnc(C[S+]([O-])c2nc3cc4c(cc3[nH]2)OC(F)(F)O4)cc1OC (centres unmarked) [Serial No. 5, 2,2-Difluoro-6-[(4,5-dimethoxy-2-pyridyl)methylsulfinyl]-5H-[1,3]-dioxolo[4,5-f]benzimidazole]",~1,1,3,25
